Values after ≈ are worked out from the molar mass of the structure shown. Active and inactive are the calls of the source. No cut-off for these calls is given here.
Columns and labels:
Klebsiella pneumoniae [1] = experiment: Antibacterial activity against ESBL-negative Klebsiella pneumoniae isolate 102 at 1 ug/ml by Etest; format: functional, organism-based
Klebsiella pneumoniae [2] = experiment: Antibacterial activity against ESBL-negative Klebsiella pneumoniae isolate 106 at 1 ug/ml by Etest; format: functional, organism-based
Klebsiella pneumoniae [3] = experiment: Antibacterial activity against ESBL-negative Klebsiella pneumoniae isolate 113 at 1 ug/ml by Etest; format: functional, organism-based
Klebsiella pneumoniae [4] = experiment: Antibacterial activity against ESBL-negative Klebsiella pneumoniae isolate 114 at 1 ug/ml by Etest; format: functional, organism-based
Klebsiella pneumoniae [5] = experiment: Antibacterial activity against ESBL-positive Klebsiella pneumoniae isolate J4 having blaSHV promoter sequence with IS26 insertion by Etest; format: functional
Klebsiella pneumoniae [6] = experiment: Antibacterial activity against ESBL-positive Klebsiella pneumoniae isolate J5 having blaSHV promoter sequence with IS26 insertion by Etest; format: functional
Klebsiella pneumoniae [7] = experiment: Antibacterial activity against ESBL-positive Klebsiella pneumoniae isolate K2 having blaSHV promoter sequence with IS26 insertion by Etest; format: functional
Klebsiella pneumoniae [8] = experiment: Antibacterial activity against ESBL-negative Klebsiella pneumoniae isolate M1 by Etest; format: functional
Klebsiella pneumoniae [9] = experiment: Antibacterial activity against ESBL-negative Klebsiella pneumoniae isolate 30 by Etest; format: functional
Klebsiella pneumoniae [10] = experiment: Antibacterial activity against ESBL-negative Klebsiella pneumoniae isolate 85 by Etest; format: functional
Klebsiella pneumoniae [11] = experiment: Antibacterial activity against ESBL-negative Klebsiella pneumoniae isolate 102 by Etest; format: functional
Klebsiella pneumoniae [12] = experiment: Antibacterial activity against ESBL-negative Klebsiella pneumoniae isolate 104 by Etest; format: functional
Klebsiella pneumoniae [13] = experiment: Antibacterial activity against ESBL-negative Klebsiella pneumoniae isolate 105 by Etest; format: functional
Klebsiella pneumoniae [14] = experiment: Antibacterial activity against ESBL-negative Klebsiella pneumoniae isolate 106 by Etest; format: functional
Klebsiella pneumoniae [15] = experiment: Antibacterial activity against ESBL-negative Klebsiella pneumoniae isolate 107 by Etest; format: functional
Klebsiella pneumoniae [16] = experiment: Antibacterial activity against ESBL-negative Klebsiella pneumoniae isolate 108 by Etest; format: functional
Klebsiella pneumoniae [17] = experiment: Antibacterial activity against ESBL-negative Klebsiella pneumoniae isolate 109 by Etest; format: functional
Klebsiella pneumoniae [18] = experiment: Antibacterial activity against ESBL-positive Klebsiella pneumoniae isolate 110 having upstream IS26 insertion by Etest; format: functional
Klebsiella pneumoniae [19] = experiment: Antibacterial activity against ESBL-negative Klebsiella pneumoniae isolate 113 by Etest; format: functional
Klebsiella pneumoniae [20] = experiment: Antibacterial activity against ESBL-negative Klebsiella pneumoniae isolate 114 by Etest; format: functional
Klebsiella pneumoniae [21] = experiment: Antibacterial activity against ESBL-negative Klebsiella pneumoniae isolate 115 by Etest; format: functional
Klebsiella pneumoniae [22] = experiment: Antibacterial activity against ESBL-negative Klebsiella pneumoniae isolate 116 by Etest; format: functional
Klebsiella pneumoniae [23] = experiment: Antibacterial activity against ESBL-positive Klebsiella pneumoniae isolate 119 having blaSHV promoter sequence with IS26 insertion by Etest; format: functional
Klebsiella pneumoniae [24] = experiment: Antibacterial activity against ESBL-positive Klebsiella pneumoniae isolate 120 having upstream IS26 insertion by Etest; format: functional
Klebsiella pneumoniae [25] = experiment: Antibacterial activity against ESBL-positive Klebsiella pneumoniae isolate 121 having upstream IS26 insertion by Etest; format: functional

In the case of `CC(C)(O/N=C(\C(=O)N[C@@H]1C(=O)N2C(C(=O)[O-])=C(C[n+]3ccccc3)CS[C@H]12)c1csc(N)n1)C(=O)O`, the Activity (Klebsiella pneumoniae [1]) is reported as “Active”, the Activity (Klebsiella pneumoniae [2]) is reported as “Active” and the Activity (Klebsiella pneumoniae [3]) is reported as “Active”. The Activity (Klebsiella pneumoniae [4]) was “Active”.

For `CO/N=C(\C(=O)N[C@@H]1C(=O)N2C(C(=O)O)=C(COC(C)=O)CS[C@H]12)c1csc(N)n1` [CEFOTAXIME], the MIC (Klebsiella pneumoniae [5]) was > 16 µg/mL, the MIC (Klebsiella pneumoniae [6]) was > 16 µg/mL and the MIC (Klebsiella pneumoniae [7]) was > 16 µg/mL. For the same compound, the MIC (Klebsiella pneumoniae [8]) was 4 µg/mL (≈ 8.78 µM), the MIC (Klebsiella pneumoniae [9]) was > 16 µg/mL and the MIC (Klebsiella pneumoniae [10]) was > 16 µg/mL. The MIC (Klebsiella pneumoniae [11]) was 3 µg/mL (≈ 6.59 µM), the MIC (Klebsiella pneumoniae [12]) was 3 µg/mL (≈ 6.59 µM) and the MIC (Klebsiella pneumoniae [13]) was > 16 µg/mL. For the same compound, the MIC (Klebsiella pneumoniae [14]) was > 16 µg/mL, the MIC (Klebsiella pneumoniae [15]) was 0.5 µg/mL (≈ 1.1 µM) and the MIC (Klebsiella pneumoniae [16]) was 6 µg/mL (≈ 13.2 µM). The MIC (Klebsiella pneumoniae [17]) was > 16 µg/mL, the MIC (Klebsiella pneumoniae [18]) was > 16 µg/mL and the MIC (Klebsiella pneumoniae [19]) was > 16 µg/mL. The MIC (Klebsiella pneumoniae [20]) was > 16 µg/mL, the MIC (Klebsiella pneumoniae [21]) was 8 µg/mL (≈ 17.6 µM) and the MIC (Klebsiella pneumoniae [22]) was > 16 µg/mL. For the same compound, the MIC (Klebsiella pneumoniae [23]) was > 16 µg/mL, the MIC (Klebsiella pneumoniae [24]) was > 16 µg/mL and the MIC (Klebsiella pneumoniae [25]) was > 16 µg/mL.
